Measurements reported in patent US12234221B2, “Pyridine carboxamide compounds for inhibiting NAV1.8” (Lieber Institute, Inc., priority 2018, dated 2025).

These compounds were tested against T1, human Nav1.8 (hNav1.8) ion channel (Homo sapiens, UniProt Q9Y5Y9) (assay: Nav1.8 channel inhibition, estimated IC50 (one or more of: fluorescence inhibition assay, PatchXpress, IonFlux HT automated patch clamp)). Conditions: HEK293 cells stably expressing hNav1.8; method used per compound not stated; read-out: Activity range (estimated IC50).
T1 construct: expressed in transfected cells; host or cells: HEK293
T1 sequence (Q9Y5Y9 whole entry): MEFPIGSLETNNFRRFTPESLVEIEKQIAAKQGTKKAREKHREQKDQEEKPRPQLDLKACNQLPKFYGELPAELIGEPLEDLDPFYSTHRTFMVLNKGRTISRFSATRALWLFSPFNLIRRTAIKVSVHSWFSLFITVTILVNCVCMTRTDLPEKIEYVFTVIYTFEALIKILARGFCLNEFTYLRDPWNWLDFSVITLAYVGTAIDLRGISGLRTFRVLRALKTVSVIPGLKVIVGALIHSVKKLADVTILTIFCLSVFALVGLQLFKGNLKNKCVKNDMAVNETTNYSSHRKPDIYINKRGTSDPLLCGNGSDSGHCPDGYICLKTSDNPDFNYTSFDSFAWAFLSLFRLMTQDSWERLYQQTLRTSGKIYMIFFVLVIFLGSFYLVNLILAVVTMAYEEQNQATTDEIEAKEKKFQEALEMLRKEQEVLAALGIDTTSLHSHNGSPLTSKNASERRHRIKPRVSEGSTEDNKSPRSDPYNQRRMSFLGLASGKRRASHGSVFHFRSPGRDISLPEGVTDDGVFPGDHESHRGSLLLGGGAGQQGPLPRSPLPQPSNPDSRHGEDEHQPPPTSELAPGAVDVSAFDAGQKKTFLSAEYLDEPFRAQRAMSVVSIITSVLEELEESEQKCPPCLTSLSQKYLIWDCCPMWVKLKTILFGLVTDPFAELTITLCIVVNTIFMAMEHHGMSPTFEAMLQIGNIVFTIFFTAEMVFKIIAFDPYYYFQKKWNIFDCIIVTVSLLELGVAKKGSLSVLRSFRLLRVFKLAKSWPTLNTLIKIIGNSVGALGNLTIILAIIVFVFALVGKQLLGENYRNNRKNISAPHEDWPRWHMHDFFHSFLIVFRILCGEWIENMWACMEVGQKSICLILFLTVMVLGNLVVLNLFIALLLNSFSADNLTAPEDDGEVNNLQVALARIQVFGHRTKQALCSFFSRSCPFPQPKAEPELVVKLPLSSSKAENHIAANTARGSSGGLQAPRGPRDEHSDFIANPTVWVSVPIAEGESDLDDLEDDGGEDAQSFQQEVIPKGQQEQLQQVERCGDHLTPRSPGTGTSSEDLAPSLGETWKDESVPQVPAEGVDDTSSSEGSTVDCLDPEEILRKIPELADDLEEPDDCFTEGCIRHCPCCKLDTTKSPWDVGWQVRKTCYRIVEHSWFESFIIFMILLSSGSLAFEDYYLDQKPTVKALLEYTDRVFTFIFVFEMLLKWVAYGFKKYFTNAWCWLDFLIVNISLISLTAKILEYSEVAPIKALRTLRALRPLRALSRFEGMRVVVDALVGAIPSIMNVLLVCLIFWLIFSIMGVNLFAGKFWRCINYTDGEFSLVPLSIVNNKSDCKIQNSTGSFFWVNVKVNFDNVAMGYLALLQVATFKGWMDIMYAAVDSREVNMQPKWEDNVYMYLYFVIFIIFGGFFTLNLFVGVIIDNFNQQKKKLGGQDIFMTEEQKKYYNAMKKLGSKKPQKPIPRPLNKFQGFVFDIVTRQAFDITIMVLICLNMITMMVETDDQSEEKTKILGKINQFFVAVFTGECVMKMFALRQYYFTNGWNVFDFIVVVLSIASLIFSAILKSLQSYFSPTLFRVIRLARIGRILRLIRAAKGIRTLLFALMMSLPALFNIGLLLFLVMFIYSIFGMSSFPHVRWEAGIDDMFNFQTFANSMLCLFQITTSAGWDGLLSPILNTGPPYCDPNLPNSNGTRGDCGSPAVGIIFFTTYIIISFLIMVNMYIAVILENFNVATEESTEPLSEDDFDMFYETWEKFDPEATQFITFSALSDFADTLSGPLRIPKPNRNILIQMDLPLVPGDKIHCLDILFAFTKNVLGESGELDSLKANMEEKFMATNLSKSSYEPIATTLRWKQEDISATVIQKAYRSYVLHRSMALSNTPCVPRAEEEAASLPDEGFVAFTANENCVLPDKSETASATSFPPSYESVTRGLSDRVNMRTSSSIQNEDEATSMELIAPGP
Format: cell-based
How it was run: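 HEK293 cells stably expressing hNav1.8 with β1/β2 subunits; IC50 from the fluorescence assay and/or automated whole-cell patch clamp (PatchXpress, IonFlux HT). Fluorescence: ANG-2 Na dye, 5 min compound preincubation (0.02–5 μM, 1% DMSO) with 30 μM ouabain, stimulation by 10 μM deltamethrin, peak signal fit logistically. PatchXpress: holding potential reset to Vhalf, inhibition normalized to control/washout currents.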

SMILES | IC50 [nM]
COc1cc(F)ccc1Oc1cc(C(F)(F)F)ncc1C(=O)Nc1ccc[n+]([O-])c1 [Example 84, 4-(4-fluoro-2-methoxy-phenoxy)-N-(1-oxidopyridin-1-ium-3-yl)-6-(trifluoromethyl)pyridine-3-carboxamide] | 500 to 1000
Cc1cc(F)ccc1Oc1cc(C(F)(F)F)ncc1C(=O)Nc1ccc[n+]([O-])c1 [Example 85, 4-(4-fluoro-2-methyl-phenoxy)-N-(1-oxidopyridin-1-ium-3-yl)-6-(trifluoromethyl)pyridine-3-carboxamide] | 500 to 1000
O=C(Nc1ccc[n+]([O-])c1)c1cnc(C(F)(F)F)cc1Oc1ccc(OC(F)F)cc1 [Example 86, 4-[4-(difluoromethoxy)phenoxy]-N-(1-oxidopyridin-1-ium-3-yl)-6-(trifluoromethyl)pyridine-3-carboxamide] | 500 to 1000
O=C(Nc1ccc[n+]([O-])c1)c1cnc(C(F)(F)F)cc1Oc1ccc(OC(F)(F)F)cc1 [Example 87, N-(1-oxidopyridin-1-ium-3-yl)-4-[4-(trifluoromethoxy)phenoxy]-6-(trifluoromethyl)pyridine-3-carboxamide] | < 500
COc1ccc(Oc2cc(C(F)(F)F)ncc2C(=O)Nc2ccc[n+]([O-])c2)c(OC)c1 [Example 88, 4-(2,4-dimethoxyphenoxy)-N-(1-oxidopyridin-1-ium-3-yl)-6-(trifluoromethyl)pyridine-3-carboxamide] | < 500
O=C(Nc1ccc[n+]([O-])c1)c1cnc(C(F)(F)F)cc1Oc1ccc(F)cc1F [Example 89, 4-(2,4-difluorophenoxy)-N-(1-oxidopyridin-1-ium-3-yl)-6-(trifluoromethyl)pyridine-3-carboxamide] | > 1000
CS(=N)(=O)c1cccc(NC(=O)c2cnc(C(F)(F)F)cc2Oc2ccc(OC(F)(F)F)cc2)c1 (centres unmarked) [Example 91, N-[3-(methylsulfonimidoyl)phenyl]-4-[4-(trifluoromethoxy)phenoxy]-6-(trifluoromethyl)pyridine-3-carboxamide] | < 500
CN=S(C)(=O)c1cccc(NC(=O)c2cnc(C(F)(F)F)cc2Oc2ccc(OC(F)(F)F)cc2)c1 (centres unmarked) [Example 92, N-[3-(N,S-dimethylsulfonimidoyl)phenyl]-4-[4-(trifluoromethoxy)phenoxy]-6-(trifluoromethyl)pyridine-3-carboxamide] | < 500
Cc1cc(F)ccc1Oc1cc(C(F)(F)F)ncc1C(=O)Nc1cccc(S(C)(=N)=O)c1 (centres unmarked) [Example 93, 4-(4-fluoro-2-methyl-phenoxy)-N-[3-(methylsulfonimidoyl)phenyl]-6-(trifluoromethyl)pyridine-3-carboxamide] | > 1000
CN=S(C)(=O)c1cccc(NC(=O)c2cnc(C(F)(F)F)cc2Oc2ccc(F)cc2C)c1 (centres unmarked) [Example 94, N-[3-(N,S-dimethylsulfonimidoyl)phenyl]-4-(4-fluoro-2-methyl-phenoxy)-6-(trifluoromethyl)pyridine-3-carboxamide] | < 500
Cc1cc(F)ccc1Oc1cc(C(F)(F)F)ncc1C(=O)Nc1ccnnc1 [Example 95, 4-(4-fluoro-2-methyl-phenoxy)-N-pyridazin-4-yl-6-(trifluoromethyl)pyridine-3-carboxamide] | < 500
O=C(Nc1ccnnc1)c1cnc(C(F)(F)F)cc1Oc1ccc(OC(F)(F)F)cc1 [Example 96, N-pyridazin-4-yl-4-[4-(trifluoromethoxy)phenoxy]-6-(trifluoromethyl)pyridine-3-carboxamide] | 500 to 1000
O=C(Nc1ccnnc1)c1cnc(C(F)(F)F)cc1Oc1ccc(OC(F)F)cc1 [Example 97, 4-[4-(difluoromethoxy)phenoxy]-N-pyridazin-4-yl-6-(trifluoromethyl)pyridine-3-carboxamide] | > 1000
O=C(Nc1ccnnc1)c1cnc(C(F)(F)F)cc1Oc1ccc(OC(F)(F)F)cc1Cl [Example 98, 4-[2-chloro-4-(trifluoromethoxy)phenoxy]-N-pyridazin-4-yl-6-(trifluoromethyl)pyridine-3-carboxamide] | < 500
COc1ccc(Oc2cc(C(F)(F)F)ncc2C(=O)Nc2ccnnc2)c(OC)c1 [Example 99, 4-(2,4-dimethoxyphenoxy)-N-pyridazin-4-yl-6-(trifluoromethyl)pyridine-3-carboxamide] | < 500
O=C(Nc1ccnnc1)c1cnc(C(F)(F)F)cc1Oc1ccc(F)cc1F [Example 100, 4-(2,4-difluorophenoxy)-N-pyridazin-4-yl-6-(trifluoromethyl)pyridine-3-carboxamide] | > 1000
COc1ccc(Oc2cc(C(F)(F)F)ncc2C(=O)Nc2cccc(S(C)(=N)=O)c2)c(OC)c1 (centres unmarked) [Example 102, 4-(2,4-dimethoxyphenoxy)-N-[3-(methylsulfonimidoyl)phenyl]-6-(trifluoromethyl)pyridine-3-carboxamide] | > 1000
CS(=N)(=O)c1cccc(NC(=O)c2cnc(C(F)(F)F)cc2Oc2ccc(F)cc2F)c1 (centres unmarked) [Example 103, 4-(2,4-difluorophenoxy)-N-[3-(methylsulfonimidoyl)phenyl]-6-(trifluoromethyl)pyridine-3-carboxamide] | > 1000
COc1cc(NC(=O)c2cc(C(F)(F)F)cnc2Oc2ccc(F)cc2C)ccn1 [Example 109, 2-(4-fluoro-2-methyl-phenoxy)-N-(2-methoxy-4-pyridyl)-5-(trifluoromethyl)pyridine-3-carboxamide] | > 1000

Now from value to compound:

IC50 [nM] | SMILES
> 1000 | Cc1cc(F)ccc1Oc1ncc(C(F)(F)F)cc1C(=O)Nc1cc[nH]c(=O)c1 [Example 110, 2-(4-fluoro-2-methyl-phenoxy)-N-(2-oxo-1H-pyridin-4-yl)-5-(trifluoromethyl)pyridine-3-carboxamide]
> 1000 | COc1cc(F)ccc1Oc1ncc(Br)cc1C(=O)Nc1cccc(S(C)(=O)=O)c1 [Example 111, 5-bromo-2-(4-fluoro-2-methoxy-phenoxy)-N-(3-methylsulfonylphenyl)pyridine-3-carboxamide]
> 1000 | COc1cc(F)ccc1Oc1ncc(C2CC2)cc1C(=O)Nc1cccc(S(C)(=O)=O)c1 [Example 112, 5-cyclopropyl-2-(4-fluoro-2-methoxy-phenoxy)-N-(3-methylsulfonylphenyl)pyridine-3-carboxamide]
500 to 1000 | Cc1cc(F)ccc1Oc1ncc(C(F)(F)F)cc1C(=O)Nc1cccc(S(C)(=O)=O)c1 [Example 113, 2-(4-fluoro-2-methyl-phenoxy)-N-(3-methylsulfonylphenyl)-5-(trifluoromethyl)pyridine-3-carboxamide]
< 500 | CN=S(C)(=O)c1cccc(NC(=O)c2cc(C(F)(F)F)cnc2Oc2ccc(F)cc2C)c1 (centres unmarked) [Example 114, N-[3-(N,S-dimethylsulfonimidoyl)phenyl]-2-(4-fluoro-2-methyl-phenoxy)-5-(trifluoromethyl)pyridine-3-carboxamide]
< 500 | Cc1cc(F)ccc1Oc1ncc(C(F)(F)F)cc1C(=O)Nc1cccc(S(C)(=N)=O)c1 (centres unmarked) [Example 115, 2-(4-fluoro-2-methyl-phenoxy)-N-[3-(methylsulfonimidoyl)phenyl]-5-(trifluoromethyl)pyridine-3-carboxamide]
> 1000 | Cc1cc(F)ccc1Oc1ncc(C(F)(F)F)cc1C(=O)Nc1ccnnc1 [Example 116, 2-(4-fluoro-2-methyl-phenoxy)-N-pyridazin-4-yl-5-(trifluoromethyl)pyridine-3-carboxamide]
> 1000 | COc1cc(F)ccc1Oc1nc(C)ccc1C(=O)Nc1cccc(S(C)(=O)=O)c1 [Example 117, 2-(4-fluoro-2-methoxy-phenoxy)-6-methyl-N-(3-methylsulfonylphenyl)pyridine-3-carboxamide]
< 500 | COc1cc(F)ccc1Oc1nc(C)c(C)cc1C(=O)Nc1cccc(S(C)(=O)=O)c1 [Example 118, 2-(4-fluoro-2-methoxy-phenoxy)-5,6-dimethyl-N-(3-methylsulfonylphenyl)pyridine-3-carboxamide]
500 to 1000 | COc1cc(F)ccc1Oc1ncc(Cl)cc1C(=O)Nc1cccc(S(C)(=O)=O)c1 [Example 119, 5-chloro-2-(4-fluoro-2-methoxy-phenoxy)-N-(3-methylsulfonylphenyl)pyridine-3-carboxamide]
< 500 | COc1cc(F)ccc1Oc1nc2c(cc1C(=O)Nc1cccc(S(C)(=O)=O)c1)CCC2 [Example 120, 2-(4-fluoro-2-methoxy-phenoxy)-N-(3-methylsulfonylphenyl)-6,7-dihydro-5H-cyclopenta[b]pyridine-3-carboxamide]
< 500 | C[S+]([O-])c1cccc(NC(=O)c2cc(C(F)(F)F)cnc2Oc2ccc(OC(F)(F)F)cc2)c1 (centres unmarked) [Example 121, N-(3-methylsulfinylphenyl)-2-[4-(trifluoromethoxy)phenoxy]-5-(trifluoromethyl)pyridine-3-carboxamide]
< 500 | NS(=O)(=O)c1cccc(NC(=O)c2cc(C(F)(F)F)cnc2Oc2ccc(OC(F)(F)F)cc2)c1 [Example 122, N-(3-sulfamoylphenyl)-2-[4-(trifluoromethoxy)phenoxy]-5-(trifluoromethyl)pyridine-3-carboxamide]
< 500 | CS(=N)(=O)c1cccc(NC(=O)c2cc(C(F)(F)F)cnc2Oc2ccc(OC(F)(F)F)cc2)c1 (centres unmarked) [Example 123, N-[3-(methylsulfonimidoyl)phenyl]-2-[4-(trifluoromethoxy)phenoxy]-5-(trifluoromethyl)pyridine-3-carboxamide]
< 500 | CN=S(C)(=O)c1cccc(NC(=O)c2cc(C(F)(F)F)cnc2Oc2ccc(OC(F)(F)F)cc2)c1 (centres unmarked) [Example 124, N-[3-(N,S-dimethylsulfonimidoyl)phenyl]-2-[4-(trifluoromethoxy)phenoxy]-5-(trifluoromethyl)pyridine-3-carboxamide]
< 500 | CCS(=O)(=O)c1cccc(NC(=O)c2cc(C(F)(F)F)cnc2Oc2ccc(OC(F)(F)F)cc2)c1 [Example 125, N-(3-ethylsulfonylphenyl)-2-[4-(trifluoromethoxy)phenoxy]-5-(trifluoromethyl)pyridine-3-carboxamide]
